Results published in PubChem BioAssay AID1918943 (Molecular Pharmacology Branch, DTP, NCI, 2023).
“And” between values parts separate entries of the source, which are not always exact repeats. Equal values may be shown once.

System: 855422-203-R-J1-PDC complex spheroid viability
Assay: Anticancer human tumor 855422-203-R-J1-PDC patient-derived bladder carcinoma cell line growth inhibition
Settings: for viability, T/C: stronger effect = lower value; for IC50: curve of compound
Source text: Multicellular complex tumor spheroid response to LSD1 Inhibitor Iadademstat in combination with a variety of drugs and investigational agents in selected tumor cell lines
The current study was undertaken to assess response to LSD1 inhibitors in combination with standard-of-care drugs and investigational agents in solid tumor complex spheroid models as well as in the K-562 leukemia. Complex spheroids include a stromal component modeled by human endothelial cells (HUVEC) and fibroblasts modeled by human mesenchymal stem cells (MSCs). The concentration ranges selected for each drug and investigational agent were based upon clinically achievable concentrations if the clinical Cmax of the agent was known.
Compounds. The drugs and investigational agents used in this study are listed on Table 1. All of the agents used, including staurosporine (NSC755774) and gemcitabine (NSC613327), were obtained from the Developmental Therapeutics Program, NCI. FDA-approved anticancer drugs are available from the NCI at http://dtp.nci.nih.gov/branches/dscb/oncology_drugset_explanation.html. Drugs and investigational agents were >95% pure by proton nuclear magnetic resonance (NMR) and liquid chromatography/mass spectrometry (LC/MS). Stock solutions were prepared at 400x in DMSO, stored at -70 degrees C, and diluted in fresh medium prior to their use. The final concentration of DMSO in cell culture wells never exceeded 0.25% (v/v). The FDA-approved anticancer drug set is available from the Developmental Therapeutics Program at https://dtp.cancer.gov/organization/dscb/obtaining/available_plates.htm. All drugs and investigational agents were tested over a range starting from a high concentration at or near the clinical Cmax and decreasing in half-log increments. If the clinical Cmax for an agent had not been determined, the highest concentration tested was 10 microM.
Cell Lines. The patient-derived cancer cell (PDC) lines: 292921-168-R-J2-PDC, K24384-001-R-PDC, and 521955-158-R2-J5-PDC pancreatic carcinomas, 556581-035-R-J1 ovarian carcinoma, 324938-238-R-J1-PDC, 855422-203-R-J1-PDC and 883617-216-R-J1-PDC urothelial bladder carcinomas, 743489-274-T-PDC renal cell carcinoma, 138582-R-J1 Merkel cell tumor, K60290-347-R-J1 and K57222-313-R-J1-PDC glioblastomas, 653999-131-R-J2-PDC, LG0703-F948-PDC, and 349418-098-R-PDC non-small cell lung carcinomas, 885512-296-R-J2-PDC, 171881-019-R-J1-PDC breast carcinomas and 186277-243-T-J2-PDC and 233499-124-R-J2-PDC colon carcinomas were obtained from the NCI Patient-Derived Models Repository (PDMR, https://pdmr.cancer.gov). The established cell lines NCI/ADR-RES (RRID:CVCL_14520 and OVCAR-5 (RRID:CVCL_1628) ovarian carcinomas, 786-O (RRID:CVCL_1051) and A498 (RRID:CVCL_A498) renal cell carcinoma, NCI-H211 (ATCC, cat. CRL-5824; RRID:CVCL_1529), NCI-H196 (ATCC, cat. CRL-5823, RRID:CVCL_1509), SW 1271 (ATCC, cat. CRL-2177, RRID:CVCL_1716) and NCI-H1876 (ATCC, cat. CRL-5902, RRID:CVCL_1503) small cell lung carcinomas, MDA-MB-231 (RRID:CVCL_0062) and MDA-MB-468 (RRID:CVCL_0419)breast carcinomas (10-12). Pooled donor human umbilical vein endothelial cells (HUVEC, Lonza, cat. CC-2519) and human mesenchymal stem cells (hMSC, Lonza, cat. PT-2501) were purchased from Lonza (Walkersville, MD).
Cell Culture. All cells were maintained in an incubator at 37 degrees C and 5% CO2 with 95% humidity. The PDC lines were cultured according to standard operating procedures established by the NCI PDMR (https://pdmr.cancer.gov). Briefly all PDCs were thawed and cultured in Matrigel-coated flasks prepared with a working solution of 1X Ham's F-12 nutrient mix, without supplementation (Invitrogen, Waltham, MA, cat. 11765054), 100 U/mL penicillin-streptomycin (Invitrogen, cat. 15140122), and 2.5% Matrigel (Corning Inc., Corning, NY, cat. 354248) for the first three passages. […]
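Also: drug exposure lasted 7 days starting on day 3 after seeding.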
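For viability, T/C in this document: luminescence viability as percent of DMSO vehicle wells = 100%.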

Row | IC50 | Structure (SMILES) | viability, T/C (compound 0.000316 µM) | viability, T/C (compound 0.001 µM) | viability, T/C (compound 0.00316 µM) | viability, T/C (compound 0.01 µM) | viability, T/C (compound 0.0316 µM) | viability, T/C (compound 0.1 µM) | viability, T/C (compound 0.316 µM) | viability, T/C (compound 1 µM) | viability, T/C (compound 3.16 µM) | viability, T/C (compound 10 µM) | viability, T/C (compound 0.00949 µM) | viability, T/C (compound 0.03 µM) | viability, T/C (compound 0.0949 µM) | viability, T/C (compound 0.3 µM) | viability, T/C (compound 0.949 µM) | viability, T/C (compound 3 µM) | viability, T/C (compound 0.000949 µM) | viability, T/C (compound 0.003 µM)
1 | 5550 nM and 5570 nM | CC1(C)CCC(CN2CCN(c3ccc(C(=O)NS(=O)(=O)c4ccc(NCC5CCOCC5)c([N+](=O)[O-])c4)c(Oc4cnc5[nH]ccc5c4)c3)CC2)=C(c2ccc(Cl)cc2)C1 | – | – | – | – | 102% and 97.3% | 105% and 94.6% | 104% and 110% | 103% and 107% | 80.6% and 83.9% | 17.9% and 15.2% | – | – | – | – | – | – | – | –
2 | 91 nM and 97.7 nM | CC1COCCN1c1cc(-c2ccnn2C)c2ccnc(-c3ccn[nH]3)c2n1 (configuration not stated) | – | – | 98.3% and 96.7% | 90.6% and 99.5% | 90.2% and 105% | 46% and 48.9% | 32.3% and 26% | 25.3% and 22.9% | – | – | – | – | – | – | – | – | – | –
3 | > 3000 nM | CCN(c1cc(-c2ccc(CN3CCOCC3)cc2)cc(C(=O)NCc2c(C)cc(C)[nH]c2=O)c1C)C1CCOCC1 | – | – | – | – | – | – | – | – | – | – | 105% and 109% | 95.1% and 101% | 94.6% and 97.5% | 86.5% and 91.6% | 88% and 88.5% | 84.7% and 89% | – | –
4 | 7.4 nM and 8.07 nM | CC[C@@]1(O)C(=O)OCc2c1cc1n(c2=O)Cc2cc3c(CN(C)C)c(O)ccc3nc2-1 | 90.1% and 96.8% | 95.2% and 97.2% | 89.8% and 94.5% | 35.8% and 39.8% | 25.6% and 21.1% | 14.6% and 14.9% | – | – | – | – | – | – | – | – | – | – | – | –
5 | > 1000 nM | COc1cc(Nc2ncc3c(n2)-c2ccc(Cl)cc2C(c2c(F)cccc2OC)=NC3)ccc1C(=O)O | – | – | 95.3% and 91.3% | 96.3% and 104% | 80.6% and 79.7% | 79.5% and 71.7% | 62.2% and 59.5% | 63.8% and 64.5% | – | – | – | – | – | – | – | – | – | –

More lines, now with the values behind:

Row | Structure (SMILES) | IC50 | viability, T/C (compound 0.000316 µM) | viability, T/C (compound 0.001 µM) | viability, T/C (compound 0.00316 µM) | viability, T/C (compound 0.01 µM) | viability, T/C (compound 0.0316 µM) | viability, T/C (compound 0.1 µM) | viability, T/C (compound 0.316 µM) | viability, T/C (compound 1 µM) | viability, T/C (compound 3.16 µM) | viability, T/C (compound 10 µM) | viability, T/C (compound 0.00949 µM) | viability, T/C (compound 0.03 µM) | viability, T/C (compound 0.0949 µM) | viability, T/C (compound 0.3 µM) | viability, T/C (compound 0.949 µM) | viability, T/C (compound 3 µM) | viability, T/C (compound 0.000949 µM) | viability, T/C (compound 0.003 µM)
6 | CC(C)CC(NC(=O)C(Cc1ccccc1)NC(=O)c1cnccn1)B(O)O (configuration not stated) | 0.538 nM and 0.61 nM | 90.9% and 115% | 2.15% and 1.03% | 0.11% and 0.13% | 0.1% and 0.12% | 0.09% and 0.13% | 0.14% and 0.2% | – | – | – | – | – | – | – | – | – | – | – | –
7 | CC(C)CC(NC(=O)CNC(=O)c1cc(Cl)ccc1Cl)B1OC(=O)CC(CC(=O)O)(C(=O)O)O1 (configuration not stated) | 1.55 nM and 1.88 nM | 105% | 76.8% and 109% | 6.4% and 3.59% | 1.38% and 0.62% | 0.11% and 0.19% | 0.17% and 0.19% | – | – | – | – | – | – | – | – | – | – | – | –
8 | CC(C)c1c(-c2ccccc2)nc2c(C#N)c[nH]n2c1=O | > 10000 nM | – | – | – | – | 98.3% and 101% | 104% and 106% | 96.1% and 107% | 104% and 99.9% | 94.5% and 99.2% | 95.4% and 90.9% | – | – | – | – | – | – | – | –
9 | CC1COCCN1c1cc(C2(S(C)(=N)=O)CC2)nc(-c2ccnc3[nH]ccc23)n1 (configuration not stated) | 2760 nM and 2310 nM | – | – | – | – | 108% and 93.8% | 99.9% and 93.1% | 101% and 94.4% | 84.9% and 85.9% | 45% and 36.6% | 40.7% and 35% | – | – | – | – | – | – | – | –
10 | CCc1c2c(nc3ccc(O)cc13)-c1cc3c(c(=O)n1C2)COC(=O)[C@]3(O)CC | < 0.949 nM | – | – | – | – | – | – | – | – | – | – | 6.95% and 8.29% | 5.21% and 4.8% | 3.58% and 2.82% | 1.67% and 10.8% | – | – | 14.2% and 14.1% | 10.3% and 11.1%
11 | COc1cc(C2c3cc4c(cc3C(OC3OC5COC(C)OC5C(O)C3O)C3COC(=O)C23)OCO4)cc(OC)c1O (configuration not stated) | 138 nM and 148 nM | – | – | – | – | – | – | – | – | – | – | 88.6% and 97.5% | 79.6% and 102% | 61% and 58.4% | 28.3% and 31.1% | 13.5% and 15.1% | 6.36% and 6.7% | – | –
